From PMC11706420, “Establishing a physiologically based pharmacokinetic framework for aldehyde oxidase and dual aldehyde oxidase‐CYP substrates” (CPT: Pharmacometrics & Systems Pharmacology, 2024)
Read-outs that look alike come from different tables or passages of the source.

Columns and labels:
[1] = test system: cMdr1-KO MDCK-EV cells; assay: In vitro permeability (Papp), transwell transport; settings: for Papp Apical to basolateral / Papp Basolateral to apical: 5 µM, 120 min, n=3, mean (CV%); for Efflux ratio: ratio of mean values
[2] = Blood-to-plasma ratio (B/P); format: in vitro ADME, human
From the text: Determination of blood to plasma ratio (B/P):
Whole human blood was collected on the day of the experiment from healthy volunteers. The collection protocol was approved by an independent ethical committee and all donors signed the consent forms. All samples were registered in the Janssen Biobank.
Prewarmed blood aliquots were mixed with the compounds (final concentrations shown in Suppl. Table 5) with a final organic DMSO solvent concentration of ≤0.1% (v/v). After gentle mixing to avoid haemolysis, blood aliquots were immediately collected for protein precipitation (1:1:8 ratios of blood sample:DMSO:ACN) and centrifugation (10 minutes, 3800 g) and the supernatant was used as a 0-minute reference blood sample. At the same time, blood aliquots were taken and centrifuged (10 minutes, 1200 g) to obtain the plasma portion. Plasma aliquots were then immediately collected for protein precipitation (1:1:8 ratios of plasma sample:DMSO:ACN) and centrifugation (10 minutes, 3800 g) and the supernatant was used as a 0-minute reference plasma sample. The remainder of the blood fraction was incubated (30 min at 37 °C). Following incubation, 30 -minute blood and plasma samples were taken and prepared as described for the reference 0-minute samples.
Mean compound concentration values (n=3 replicates) were calculated for both the blood and plasma samples. A blood-to-plasma concentration ratio was then determined using Eq. S4. […]

[3] = target: T1, aldehyde oxidase (AO) (Homo sapiens, UniProt Q06278); settings: ref suppl. 30, 31, 32, 35, 59; cited from earlier work
T1 sequence (Q06278 1-1338): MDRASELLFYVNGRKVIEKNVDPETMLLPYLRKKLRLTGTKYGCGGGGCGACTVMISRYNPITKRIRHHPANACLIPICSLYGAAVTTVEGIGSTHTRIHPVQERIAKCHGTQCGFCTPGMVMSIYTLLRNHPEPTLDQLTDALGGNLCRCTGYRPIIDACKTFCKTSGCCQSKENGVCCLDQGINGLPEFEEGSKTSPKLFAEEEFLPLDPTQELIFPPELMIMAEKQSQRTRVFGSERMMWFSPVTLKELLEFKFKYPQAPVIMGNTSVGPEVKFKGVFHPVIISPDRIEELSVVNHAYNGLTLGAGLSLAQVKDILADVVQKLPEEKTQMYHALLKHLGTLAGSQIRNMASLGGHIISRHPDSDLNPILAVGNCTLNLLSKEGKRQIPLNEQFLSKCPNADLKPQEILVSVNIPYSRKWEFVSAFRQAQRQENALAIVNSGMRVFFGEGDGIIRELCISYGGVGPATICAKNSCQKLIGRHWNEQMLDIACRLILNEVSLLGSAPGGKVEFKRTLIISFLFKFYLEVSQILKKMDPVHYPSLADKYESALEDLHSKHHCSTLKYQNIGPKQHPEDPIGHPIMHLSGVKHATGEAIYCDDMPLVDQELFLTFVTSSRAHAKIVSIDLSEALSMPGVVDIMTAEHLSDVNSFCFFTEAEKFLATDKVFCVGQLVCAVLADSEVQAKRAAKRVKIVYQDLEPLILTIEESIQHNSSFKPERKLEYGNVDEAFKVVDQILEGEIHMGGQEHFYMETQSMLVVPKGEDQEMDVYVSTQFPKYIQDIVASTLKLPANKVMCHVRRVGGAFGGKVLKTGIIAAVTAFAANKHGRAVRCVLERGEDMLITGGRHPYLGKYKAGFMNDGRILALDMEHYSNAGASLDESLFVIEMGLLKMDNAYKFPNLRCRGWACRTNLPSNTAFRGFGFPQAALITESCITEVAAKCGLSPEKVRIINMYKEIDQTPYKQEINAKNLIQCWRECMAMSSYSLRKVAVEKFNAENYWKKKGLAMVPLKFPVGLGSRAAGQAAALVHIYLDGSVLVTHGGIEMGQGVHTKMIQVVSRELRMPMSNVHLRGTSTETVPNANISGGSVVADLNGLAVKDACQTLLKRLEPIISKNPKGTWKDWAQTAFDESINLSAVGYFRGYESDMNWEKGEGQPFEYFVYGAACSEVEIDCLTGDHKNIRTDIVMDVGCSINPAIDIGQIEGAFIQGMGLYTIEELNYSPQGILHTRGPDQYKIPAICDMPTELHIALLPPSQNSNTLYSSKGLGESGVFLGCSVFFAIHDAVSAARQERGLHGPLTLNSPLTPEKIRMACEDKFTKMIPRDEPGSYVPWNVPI

[4] = target: T1, aldehyde oxidase (AO); assay: In vitro AO inhibition (literature)
From the text: (§1) Supplement 5. Exploratory analysis to evaluate potential AO-mediated DDI risks […]
(§2) Semi-mechanistic model for AO-mediated DDI risk predictions
(§3) Supp. Table 4. Summary of inhibitor parameters used in the semi -mechanistic static model to evaluate the risk of AO -mediated DDIs
(§4) Semi-mechanistic model for AO mediated DDI risk predictions: […]
(§5) using the semi-mechanistic static model with listed parameters in Suppl. Table 4. The most conservative approach is used for all compounds with maximum Cmax,u and minimum Ki,u data available. […]
(§6) [I] is the unbound concentration of inhibitors in the liver and was designated as the unbound maximum systemic concentration of inhibitors as a surrogate. 27 Due to the lack of AO kdeg values in the literature, the arithmetic means of all reported P450 kdeg (0.00026 min-1) was used.28, 29 […]
(§7) Table S4. Summary of inhibitor parameters used in the semi-mechanistic static model to evaluate the risk of […]
(§8) bSimcyp v.21 Compound Repository […]
(§9) dCorrected for the 0.05 mg/mL cytosolic protein from the measured fuinc at 1.5 mg/mL cytosolic protein34, 36

[5] = Inhibitor plasma exposure and plasma binding (literature); format: in vivo, human; settings: Figure 5
From the text: as §1, §2, §3, §4, §5, §6, §7, §8, §9

[6] = test system: CYP3A4; settings: cited from earlier work
[7] = cited from earlier work
[8] = Cytosolic binding (fucyt), dog liver cytosol; settings: 1 mg/mL; n=3, mean (CV%)
[9] = observed; ref Table S2/S3 studies; cited from earlier work
[10] = In vitro permeability (Papp), transwell transport; settings: dog, MDCK
[11] = Cytosolic binding (fucyt), human liver cytosol with AO inhibitor; settings: 1 mg/mL; n=3, mean (CV%)
[12] = cited from earlier work; for fmAO: ref suppl. 8-13; for fmCYP3A4: ref suppl. 8-12
[13] = Plasma protein binding (fup), rapid equilibrium dialysis; format: in vitro ADME, human; settings: male, human, 1 µM; for fup: 6 h, pH 7.4
Procedure: (differing in 2 donors) were used for activity and microsomal binding assays, respectively.
The human biological samples were sourced ethically, and their research use was in accord with the terms of the informed consents under an IRB/EC approved protocol.
Determination of plasma protein binding (fup):
Human plasma (male, K2EDTA) was obtained from BioIVT (Baltimore, MD, USA). A pool of n=20 donors was prepared in-house (batch: 16062022). The plasma protein binding of compounds in human was determined by equilibrium dialysis using the rapid equilibrium dialysis (RED) device (Thermo […]
Frozen blank human plasma […]
solution to a final concentration of 1 µM (0.5 % DMSO). 300 µ L of the fortified plasma samples were subjected to dialysis against 500 µL PBS buffer at pH 7.4, for 6 h at 37 °C in triplicate. After dialysis, 200 µl aliquots of the buffer and the plasma compartments were transferred into micronic tubes. To minimize the potential for non -specific binding to the micronic tubes the buffer sam ples were collected on to 50µl of 10 % bovine serum albumin (BSA). For the assessment of test compound stability in plasma, 300 µl aliquots of the spiked plasma solutions were transferred into micronic tubes and incubated in an air heated incubator at 37°C without shaking for 4 and 20 hours. The remaining spiked protein solutions were frozen and used to measure the initial start concentration ( C0) to calculate the recovery. Sample analysis was achieved by LC -MS/MS and absolute quantification of the drug lev els in the buffer and plasma compartments was achieved via a matrix matched calibration curve (in the presence of an internal standard tolbutamide). All buffer and plasma sample sets were matrix matched […]
for analysis. The samples were centrifuged (15 minutes, 3400 g) and supernatants were transferred to a fresh plate for analysis. The unbound concentration (Cu), and the total concentration (CED) were determined by measurement of the concentration of the test compound in the buffer and plasma compartments of the dialysis cells, respectively. The fraction unbound was calculated using Eq. S1.
fuplasma = Cu/CED (Eq. S1)
The percentage recovery was calculated as the ratio of the sum of the amount in the buffer (Au) and plasma (AED) compartments to the amount at time zero (A0) (Eq. S2). The percentage stability was calculated as the ratio of the concentration of the test compound at the end of the incubation (C t) time […]
% recovery = (( Au + AED ) / A0 ) × 100 (Eq. S2)

[14] = DDI study with rifampicin (capmatinib 400, idelalisib 150, lenvatinib 24 mg) or carbamazepine (ziprasidone 20 mg), observed, ref suppl. 15,18,21,25
[15] = with itraconazole (capmatinib 200 mg) or ketoconazole (idelalisib 400, lenvatinib 5, ziprasidone 40 mg), observed, ref suppl. 15,10,17,20,24
[16] = with rifampicin (capmatinib 400, idelalisib 150, lenvatinib 24 mg) or carbamazepine (ziprasidone 20 mg), observed, ref suppl. 15,18,21,25

C[C@H]1O[C@@H](O[C@H]2[C@@H](O)C[C@H](O[C@H]3[C@@H](O)C[C@H](O[C@H]4CC[C@@]5(C)[C@H](CC[C@@H]6[C@@H]5C[C@@H](O)[C@]5(C)[C@@H](C7=CC(=O)OC7)CC[C@]65O)C4)O[C@@H]3C)O[C@@H]2C)C[C@H](O)[C@@H]1O [3H-digoxin]
Papp Apical to basolateral [1]: 1.66 (34.3) 10^−6 cm/s | Papp Basolateral to apical [1]: 1.43 (28) x 10-6 cm/s | Efflux ratio [1]: 0.864

CC(C)NCC(O)COc1cccc2ccccc12 (stereo not drawn) [3H-propranolol]
Papp Apical to basolateral [1]: 31.4 (4.14) 10^−6 cm/s | Papp Basolateral to apical [1]: 17.7 (9.6) x 10-6 cm/s | Efflux ratio [1]: 0.563

OCC(O)C(O)C(O)C(O)[14CH2]O (stereo not drawn) [14C-mannitol]
Papp Apical to basolateral [1]: 0.793 (76.4) 10^−6 cm/s | Papp Basolateral to apical [1]: 0.378 (63.2) x 10-6 cm/s | Efflux ratio [1]: 0.476

CCN(CC)CCCC(C)Nc1ccnc2cc(Cl)ccc12 (stereo not drawn) [Chloroquine]
B/P ([2]; 50 ng/mL): 3.46 | B/P ([2]; 1000 ng/mL): 2.40

CN/C(=N/CCSCc1nc[nH]c1C)NC#N [Cimetidine]
Mode of inhibition [3]: Competitive | Ki ([4]; Ki,u, Figure 5): 132 µM | Cmax,u [5]: 5.0 µM

CC[C@H](Nc1ncnc2[nH]cnc12)c1nc2cccc(F)c2c(=O)n1-c1ccccc1 [Idelalisib]
Cmax, control ([6]; DDI study with itraconazole (capmatinib 200 mg) or ketoconazole (idelalisib 400, lenvatinib 5, ziprasidone 40 mg), observed geomean (CV%), ref suppl. 15,10,17,20,24): 3550 ng/mL | AUCinf, control ([6]; DDI study with itraconazole (capmatinib 200 mg) or ketoconazole (idelalisib 400, lenvatinib 5, ziprasidone 40 mg), observed, ref suppl. 15,10,17,20,24): 15.9 µg·h/mL | AUCinf, control (AUC0-12 for ziprasidone) [6, 14]: 9599 (37) ng.h/mL | Cmax, control [6, 14]: 2152 (24) ng/mL | AUCinf, interaction [6, 15]: 28.5 µg·h/mL | Cmax, interaction [6, 15]: 4450 ng/mL | AUCinf, interaction (AUC0-12 for ziprasidone) [6, 16]: 2294 (40) ng.h/mL | Cmax, interaction [6, 16]: 933 (41) ng/mL | pKa1 ([7]; 47 (per cell)): 1.6[45] | pKa2 ([7]; 47 (per cell)): 3.4[45] | logP ([7]; octanol-water, 12 (per cell)): 2[45] | fucyt, Dog Liver Cytosol with 50 uM Hydralazine [8]: 0.814 (5.11) | CLRenal [9]: 0.459 L/h | Papp A→B at 120 min, 5 µM [10]: 162 nm/s | Papp B→A at 120 min, 5 µM [10]: 147 nm/s | fucyt, Human Liver Cytosol with 5 uM Raloxifene [11]: 0.787 (5.70) | fucyt, Human Liver Cytosol with 50 uM Hydralazine [11]: 0.924 (3.35) | fmAO ([12]; measured in excreta): 0.29 | fmAO ([12]; observed (mass balance), min-max where uncertain, Table S10): 29 | fmCYP3A4 ([12]; observed (mass balance), min-max where uncertain): 12-68 | fmCYP3A4 [12]: 0.12–0.68 | fmCYP3A4 (maximum) ([12]; ref suppl. 9-11): 0.68 | fmCYP3A4 (minimum) ([12]; ref suppl. 9-11): 0.12

CCC(C)n1ncn(-c2ccc(N3CCN(c4ccc(OCC5COC(Cn6cncn6)(c6ccc(Cl)cc6Cl)O5)cc4)CC3)cc2)c1=O (stereo not drawn) [Itraconazole]
IC50 [4]: > 2.8 µM

CC(=O)N1CCN(c2ccc(OCC3COC(Cn4ccnc4)(c4ccc(Cl)cc4Cl)O3)cc2)CC1 (stereo not drawn) [Ketoconazole]
IC50 [4]: 1.2 to 2.1 µM

CC(C)NCC(O)COc1cccc2ccccc12 (stereo not drawn) [Propranolol]
fup [13]: 0.137 (4.98) | % Stability in plasma ([13]; plasma, 20 h): 94.8%

CC(=O)CC(c1ccccc1)c1c(O)c2ccccc2oc1=O (stereo not drawn) [Warfarin]
fup [13]: 0.0064 (1.26)
